Results from US20250277012A1 (Protagonist Therapeutics, Inc., priority 2021, published 2025).
Positions of bridges follow the written chain, without caps; N, C: chain ends. Non-standard residues stand in square brackets, D forms with d. Residues, ends and D or L forms follow the SMILES beside them. Groups on a side chain read outwards from the residue. *: point of attachment. X1 = C[N+](C)(CCNC(=O)CCCCCCCCCCCCCCCCC(=O)O)CC(=O)*; Trp(6-OMe) = COc1ccc2c(C[C@H](N)C(=O)O)c[nH]c2c1; Phe(4-CF3) = N[C@@H](Cc1ccc(C(F)(F)F)cc1)C(=O)O; X5 = CCCCCCCCCCCCCCCC(=O)NCC[N+](C)(C)CC(=O)*; Bip = N[C@@H](Cc1ccc(-c2ccccc2)cc1)C(=O)O; C18 diacid = O=C(O)CCCCCCCCCCCCCCCCC(=O)*; Dip = N[C@H](C(=O)O)C(c1ccccc1)c1ccccc1; Pro(3R-OH) = O=C(O)[C@H]1NCC[C@H]1O; NMeF = CN[C@@H](Cc1ccccc1)C(=O)O; NMeT = CN[C@H](C(=O)O)[C@@H](C)O; β3hF = N[C@H](CC(=O)O)Cc1ccccc1; NMeK = CN[C@@H](CCCCN)C(=O)O; dNMeK = CN[C@H](CCCCN)C(=O)O; αMeP = C[C@@]1(C(=O)O)CCCN1; Isovaleryl = CC(C)CC(=O)*; NMeC = CN[C@@H](CS)C(=O)O; Dap = NC[C@H](N)C(=O)O; AEEA = NCCOCCOCC(=O)O; Ahx = NCCCCCC(=O)O

The molecules below were run against T1, ferroportin (Homo sapiens, UniProt Q9NP59) (assay: T47D cell-based ferroportin internalization assay in presence of mouse serum albumin (MSA)). Conditions: Table 6E; T47D internalization assay with MSA.
T1 sequence (Q9NP59 1-571): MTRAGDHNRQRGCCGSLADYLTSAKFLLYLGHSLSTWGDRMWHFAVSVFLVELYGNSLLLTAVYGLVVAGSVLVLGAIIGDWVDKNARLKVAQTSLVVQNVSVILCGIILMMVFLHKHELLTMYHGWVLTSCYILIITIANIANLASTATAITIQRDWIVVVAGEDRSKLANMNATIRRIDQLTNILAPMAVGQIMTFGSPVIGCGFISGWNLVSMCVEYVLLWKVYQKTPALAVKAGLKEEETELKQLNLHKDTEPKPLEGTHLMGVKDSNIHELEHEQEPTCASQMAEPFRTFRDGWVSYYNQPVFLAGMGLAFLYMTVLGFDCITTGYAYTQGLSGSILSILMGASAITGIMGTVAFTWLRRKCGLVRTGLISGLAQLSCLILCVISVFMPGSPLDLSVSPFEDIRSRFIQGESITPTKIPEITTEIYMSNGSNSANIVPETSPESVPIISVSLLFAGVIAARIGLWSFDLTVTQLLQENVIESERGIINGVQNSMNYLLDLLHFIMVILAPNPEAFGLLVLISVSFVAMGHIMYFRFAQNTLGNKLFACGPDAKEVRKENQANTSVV
Parameters: a human breast carcinoma adherent cell line which endogenously expresses ferroportin; host or cells: T47D
Procedure: The potency of the peptides in causing ferroportin internalization was evaluated in a T47D cell-based assay. […] In this internalization assay, the potency of the test peptides was evaluated in presence of serum albumin which is the main protein component in the blood. T47D cells were maintained in RPMI media (containing required amount of fetal bovine serum) and regularly sub-cultured. In preparation for the assay, the cells were seeded in 96-well plates at a density of 80-100 k cells per well in 100 ul volume and allowed to rest overnight. […] Sigma, A3139). The test peptide dilution series were allowed to incubate at room temperature for 30 min. Then the media was aspirated from the 96-well cell plate and test peptide dilution series were added. […] The AF647-conjugated detection peptide was previously verified to bind to ferroportin and cause its internalization. The cells were washed again after a 2 hr incubation in preparation for flow cytometry analysis. The Median Fluorescence Intensity (MFI) of the AF647-positive population was measured (after removing dead cells and non-singlets from the analysis). The MFI values were used to generate a dose-response curve and obtain IC50 potencies for the test peptides.
With `COC(=O)CC[C@H](NC(=O)CC(C)C)C(=O)N1CCC[C@@]1(C)C(=O)N[C@@H](Cc1c[nH]cn1)C(=O)N[C@H](C(=O)N1CCC[C@H]1C(=O)N[C@H]1CSSC[C@@H](C(=O)N(C)[C@@H](CCCCNC(=O)CCCCCNC(=O)C[N+](C)(C)CCNC(=O)CCCCCCCCCCCCCCCCC(=O)O)C(=O)N[C@H](C(=O)N[C@H](CCCCN)C(N)=O)C(c2ccccc2)c2ccccc2)NC1=O)C(c1ccccc1)c1ccccc1` [compound 145] (Isovaleryl-E(OMe)[αMeP]H[Dip]PCC[NMeK]([Ahx-X1])[Dip][dK]-NH2; disulfide 6-7) the IC50 was 10 to 100 nM. `CCCCCCCCCCCCCCCC(=O)NCC[N+](C)(C)CC(=O)NCCCC[C@@H](C(=O)N[C@H](C(=O)N(C)[C@@H](CCCCN)C(N)=O)C(c1ccccc1)c1ccccc1)N(C)C(=O)[C@@H]1CSSC[C@H](NC(=O)[C@@H]2CCCN2C(=O)[C@@H](NC(=O)[C@H](Cc2c[nH]cn2)NC(=O)[C@H]([C@@H](C)O)N(C)C(=O)[C@H](CCC(=O)OC)NC(=O)CC(C)C)C(c2ccccc2)c2ccccc2)C(=O)N1` [compound 149] (Isovaleryl-E(OMe)[NMeT]H[Dip]PCC[NMeK](X5)[Dip][NMeK]-NH2; disulfide 6-7) showed an IC50 of 10 to 100 nM. For `CCCCCCCCCCCCCCCC(=O)NCC[N+](C)(C)CC(=O)NCCCC[C@@H](C(=O)N[C@H](C(N)=O)C(c1ccccc1)c1ccccc1)N(C)C(=O)[C@@H]1CSSC[C@H](NC(=O)[C@@H]2CCCN2C(=O)[C@@H](NC(=O)[C@H](Cc2cnc[nH]2)NC(=O)[C@@H]2[C@H](O)CCN2C(=O)[C@H](CCC(=O)O)NC(=O)CC(C)C)C(c2ccccc2)c2ccccc2)C(=O)N1` [compound 150] (Isovaleryl-E[Pro(3R-OH)]H[Dip]PCC[NMeK](X5)[Dip]-NH2; disulfide 6-7), the IC50 was 1 to 10 nM. `CCCCCCCCCCCCCCCC(=O)NCC[N+](C)(C)CC(=O)NCCCC[C@@H](C(=O)N[C@H](C(=O)N[C@H](CCCCN)C(N)=O)C(c1ccccc1)c1ccccc1)N(C)C(=O)[C@@H]1CSSC[C@H](NC(=O)[C@@H]2CCCN2C(=O)[C@@H](NC(=O)[C@H](Cc2c[nH]cn2)NC(=O)[C@@H]2[C@H](O)CCN2C(=O)[C@H](CCC(=O)OC)NC(=O)CC(C)C)C(c2ccccc2)c2ccccc2)C(=O)N1` [compound 151] (Isovaleryl-E(OMe)[Pro(3R-OH)]H[Dip]PCC[NMeK](X5)[Dip][dK]-NH2; disulfide 6-7) was tested, and the IC50 was 1 to 10 nM. `CCCCCCCCCCCCCCCC(=O)NCC[N+](C)(C)CC(=O)NCCCC[C@@H](C(=O)N[C@H](C(=O)N[C@H](CCCCN)C(N)=O)C(c1ccccc1)c1ccccc1)N(C)C(=O)[C@@H]1CSSC[C@H](NC(=O)[C@@H]2CCCN2C(=O)[C@@H](NC(=O)[C@H](Cc2cnc[nH]2)NC(=O)[C@@H]2[C@H](O)CCN2C(=O)[C@H](CCC(=O)O)NC(=O)CC(C)C)C(c2ccccc2)c2ccccc2)C(=O)N1` [compound 152] (Isovaleryl-E[Pro(3R-OH)]H[Dip]PCC[NMeK](X5)[Dip][dK]-NH2; disulfide 6-7) was tested, and the IC50 was 1 to 10 nM. With `COC(=O)CC[C@H](NC(=O)CC(C)C)C(=O)N(C)[C@H](C(=O)N[C@@H](Cc1c[nH]cn1)C(=O)N[C@H](C(=O)N1CCC[C@H]1C(=O)N[C@H]1CSSC[C@@H](C(=O)N(C)[C@@H](CCCCNC(=O)CCCCCNC(=O)C[N+](C)(C)CCNC(=O)CCCCCCCCCCCCCCCCC(=O)O)C(=O)N[C@H](C(=O)N(C)[C@@H](CCCCN)C(N)=O)C(c2ccccc2)c2ccccc2)NC1=O)C(c1ccccc1)c1ccccc1)[C@@H](C)O` [compound 153] (Isovaleryl-E(OMe)[NMeT]H[Dip]PCC[NMeK]([Ahx-X1])[Dip][NMeK]-NH2; disulfide 6-7) the IC50 was 100 to 500 nM.

The molecules below were run against T1, ferroportin (assay: FPN activity assay: ferroportin-GFP internalization/degradation in HEK293 cells). Conditions: ferroportin-GFP internalization/degradation, HEK293 cells; Table 6E; read-out: FPN IC50.
Assay type: cell-based
Parameters: expressed in transfected cells
Procedure: Following internalization, the ferroporin protein is degraded.
A retro inverse peptide is a peptide with a reversed sequence in all D amino acids. An example is that Hy-Glu-Thr-His-NH2 becomes Hy-DHis-DThr-DGlu-NH2. The EC50 of these reference compounds for ferroportin internalization/degradation was determined according to the FPN activity assay described above. These peptides served as control standards.
`CC(C)CC(=O)N[C@@H](CCC(=O)O)C(=O)N[C@H](C(=O)N[C@@H](Cc1c[nH]cn1)C(=O)N[C@H](C(=O)N1CCC[C@H]1C(=O)N[C@H]1CSSC[C@@H](C(=O)N(C)[C@@H](CCCCNC(=O)COCCOCCNC(=O)COCCOCCNC(=O)[C@H](CN)NC(=O)CCCCCCCCCCCCCCCCC(=O)O)C(=O)N[C@H](CC(=O)N(C)[C@H](CCCCN)C(N)=O)Cc2ccccc2)NC1=O)C(c1ccccc1)c1ccccc1)[C@@H](C)O` [compound 276] (Isovaleryl-ETH[Dip]PCC[NMeK]([AEEA-AEEA-Dap-C18 diacid])[β3hF][dNMeK]-NH2; disulfide 6-7) was tested, and the DC50 was 10 to 100 nM. In the case of `CC(C)CC(=O)N[C@@H](CCC(=O)O)C(=O)N[C@H](C(=O)N[C@@H](Cc1c[nH]cn1)C(=O)N[C@H](C(=O)N1CCC[C@H]1C(=O)N[C@H]1CSSC[C@@H](C(=O)N(C)[C@@H](CCCCNC(=O)COCCOCCNC(=O)COCCOCCNC(=O)[C@H](CN)NC(=O)CCCCCCCCCCCCCCCCC(=O)O)C(=O)N(C)[C@@H](Cc2ccccc2)C(=O)N(C)[C@@H](CCCCN)C(N)=O)N(C)C1=O)C(c1ccccc1)c1ccccc1)[C@@H](C)O` [compound 277] (Isovaleryl-ETH[Dip]PC[NMeC][NMeK]([AEEA-AEEA-Dap-C18 diacid])[NMeF][NMeK]-NH2; disulfide 6-7), the DC50 is reported as 10 to 100 nM. `CC(C)CC(=O)N[C@@H](CCC(=O)O)C(=O)N[C@H](C(=O)N[C@@H](Cc1c[nH]cn1)C(=O)N[C@H](C(=O)N1CCC[C@H]1C(=O)N[C@H]1CSSC[C@@H](C(=O)N(C)[C@@H](CCCCNC(=O)COCCOCCNC(=O)COCCOCCNC(=O)[C@H](CN)NC(=O)CCCCCCCCCCCCCCCCC(=O)O)C(=O)N[C@H](CC(=O)N[C@H](CCCCN)C(N)=O)Cc2ccccc2)N(C)C1=O)C(c1ccccc1)c1ccccc1)[C@@H](C)O` [compound 278] (Isovaleryl-ETH[Dip]PC[NMeC][NMeK]([AEEA-AEEA-Dap-C18 diacid])[β3hF][dK]-NH2; disulfide 6-7) gave a DC50 of 10 to 100 nM. `CC(C)CC(=O)N[C@@H](CCC(=O)O)C(=O)N[C@H](C(=O)N[C@@H](Cc1c[nH]cn1)C(=O)N[C@H](C(=O)N1CCC[C@H]1C(=O)N[C@H]1CSSC[C@@H](C(=O)N(C)[C@@H](CCCCNC(=O)COCCOCCNC(=O)COCCOCCNC(=O)[C@H](CN)NC(=O)CCCCCCCCCCCCCCCCC(=O)O)C(=O)N(C)[C@@H](Cc2ccccc2)C(=O)N[C@H](CCCCN)C(N)=O)N(C)C1=O)C(c1ccccc1)c1ccccc1)[C@@H](C)O` [compound 281] (Isovaleryl-ETH[Dip]PC[NMeC][NMeK]([AEEA-AEEA-Dap-C18 diacid])[NMeF][dK]-NH2; disulfide 6-7) showed a DC50 of 100 to 500 nM. `CC(C)CC(=O)N[C@@H](CCC(=O)O)C(=O)N[C@H](C(=O)N[C@@H](Cc1ccc(C(F)(F)F)cc1)C(=O)N[C@H](C(=O)N1CCC[C@H]1C(=O)N[C@H]1CSSC[C@@H](C(=O)N(C)[C@@H](CCCCNC(=O)COCCOCCNC(=O)COCCOCCNC(=O)[C@H](CN)NC(=O)CCCCCCCCCCCCCCCCC(=O)O)C(=O)N[C@H](CC(=O)N[C@H](CCCCN)C(N)=O)Cc2ccccc2)NC1=O)C(c1ccccc1)c1ccccc1)[C@@H](C)O` [compound 286] (Isovaleryl-ET[Phe(4-CF3)][Dip]PCC[NMeK]([AEEA-AEEA-Dap-C18 diacid])[β3hF][dK]-NH2; disulfide 6-7) showed a DC50 of 100 to 500 nM. `COc1ccc2c(C[C@H](NC(=O)[C@@H](NC(=O)[C@H](CCC(=O)O)NC(=O)CC(C)C)[C@@H](C)O)C(=O)N[C@H](C(=O)N3CCC[C@H]3C(=O)N[C@H]3CSSC[C@@H](C(=O)N(C)[C@@H](CCCCNC(=O)COCCOCCNC(=O)COCCOCCNC(=O)[C@H](CN)NC(=O)CCCCCCCCCCCCCCCCC(=O)O)C(=O)N[C@H](CC(=O)N[C@H](CCCCN)C(N)=O)Cc4ccccc4)NC3=O)C(c3ccccc3)c3ccccc3)c[nH]c2c1` [compound 287] (Isovaleryl-ET[Trp(6-OMe)][Dip]PCC[NMeK]([AEEA-AEEA-Dap-C18 diacid])[β3hF][dK]-NH2; disulfide 6-7) gave a DC50 greater than 500 nM. Molecule `CC(C)CC(=O)N[C@@H](CCC(=O)O)C(=O)N[C@H](C(=O)N[C@@H](Cc1ccc(-c2ccccc2)cc1)C(=O)N[C@H](C(=O)N1CCC[C@H]1C(=O)N[C@H]1CSSC[C@@H](C(=O)N(C)[C@@H](CCCCNC(=O)COCCOCCNC(=O)COCCOCCNC(=O)[C@H](CN)NC(=O)CCCCCCCCCCCCCCCCC(=O)O)C(=O)N[C@H](CC(=O)N[C@H](CCCCN)C(N)=O)Cc2ccccc2)NC1=O)C(c1ccccc1)c1ccccc1)[C@@H](C)O` [compound 297] (Isovaleryl-ET[Bip][Dip]PCC[NMeK]([AEEA-AEEA-Dap-C18 diacid])[β3hF][dK]-NH2; disulfide 6-7) has a DC50 greater than 500 nM.
